Values after ≈ are worked out from the molar mass of the structure shown.
Key:
Staphylococcus aureus = test: Experimental bacterial infection in mice, ED50; format: in vivo; settings: two doses, administered subcutaneously
Streptococcus pyogenes = test: Experimental bacterial infection in mice, ED50; format: in vivo; settings: two doses, administered subcutaneously
Streptococcus pneumoniae = test: Experimental bacterial infection in mice, ED50; format: in vivo; settings: two doses, administered subcutaneously
[1] = system: Staphylococcus aureus NRRL B313; settings: agar dilution
[2] = system: Staphylococcus aureus V41; settings: agar dilution
[3] = system: Staphylococcus aureus X400; settings: agar dilution
[4] = system: Staphylococcus aureus S13E; settings: agar dilution
[5] = system: Staphylococcus epidermidis EPI1; settings: agar dilution
[6] = system: Staphylococcus epidermidis 222; settings: agar dilution
[7] = system: Streptococcus pyogenes C203; settings: agar dilution
[8] = system: Streptococcus pneumoniae Park 1; settings: agar dilution
[9] = system: Streptococcus faecium ATCC 9790; settings: agar dilution
[10] = system: Streptococcus sp. group D 2041; settings: agar dilution
[11] = system: Haemophilus influenzae C.L.; settings: agar dilution
[12] = system: Haemophilus influenzae 76; settings: agar dilution
Escherichia coli N10 = settings: agar dilution
Escherichia coli EC14 = settings: agar dilution
Escherichia coli TEM = settings: agar dilution
[13] = system: Klebsiella pneumoniae X26; settings: agar dilution
[14] = system: Klebsiella pneumoniae X68; settings: agar dilution
[15] = system: Klebsiella pneumoniae KAE; settings: agar dilution

SMILES	ED50 (Staphylococcus aureus)	ED50 (Streptococcus pyogenes)	MIC [1] [µg/mL]	MIC [2] [µg/mL]	MIC [3] [µg/mL]	MIC [4] [µg/mL]	MIC [5] [µg/mL]	MIC [6] [µg/mL]	MIC [7] [µg/mL]	MIC [8] [µg/mL]	MIC [9] [µg/mL]	MIC [10] [µg/mL]	MIC [11]	MIC [12]	MIC (Escherichia coli N10)	MIC (Escherichia coli EC14)	MIC (Escherichia coli TEM)	MIC [13]	MIC [14]	MIC [15]	further results
CCCCCCCC(=O)NC1(C)CC(OC2C(Oc3c4cc5cc3Oc3ccc(cc3Cl)C(O)C3NC(=O)C(NC(=O)C5NC(=O)C(CC(N)=O)NC(=O)C(NC(=O)C(CC(C)C)NC)C(O)c5ccc(c(Cl)c5)O4)c4ccc(O)c(c4)-c4c(O)cc(O)cc4C(C(=O)O)NC3=O)OC(CO)C(O)C2O)OC(C)C1O (stereo not drawn) [Compound 3, N^van --(1-oxo-n-octyl)vancomycin]	6.9 mg/kg/2	4.4 mg/kg/2	1 (≈ 0.635 µM)	2 (≈ 1.27 µM)	2 (≈ 1.27 µM)	2 (≈ 1.27 µM)	8 (≈ 5.08 µM)	2 (≈ 1.27 µM)	0.5 (≈ 0.317 µM)	0.5 (≈ 0.317 µM)	2 (≈ 1.27 µM)	4 (≈ 2.54 µM)	-- (not active at 128 mcg/ml)	-- (not active at 128 mcg/ml)	-- (not active at 128 mcg/ml)	-- (not active at 128 mcg/ml)	-- (not active at 128 mcg/ml)	-- (not active at 128 mcg/ml)	-- (not active at 128 mcg/ml)	-- (not active at 128 mcg/ml)	ED50 (Streptococcus pneumoniae): 4.8 mg/kg/2
CCCCCC(=O)NC1(C)CC(OC2C(Oc3c4cc5cc3Oc3ccc(cc3Cl)C(O)C3NC(=O)C(NC(=O)C5NC(=O)C(CC(N)=O)NC(=O)C(NC(=O)C(CC(C)C)NC)C(O)c5ccc(c(Cl)c5)O4)c4ccc(O)c(c4)-c4c(O)cc(O)cc4C(C(=O)O)NC3=O)OC(CO)C(O)C2O)OC(C)C1O (stereo not drawn) [Compound 2, N^van --(1-oxo-n-hexyl)vancomycin]	11.2 mg/kg/2	12.9 mg/kg/2	2 (≈ 1.29 µM)	4 (≈ 2.58 µM)	4 (≈ 2.58 µM)	4 (≈ 2.58 µM)	16 (≈ 10.3 µM)	8 (≈ 5.17 µM)	2 (≈ 1.29 µM)	2 (≈ 1.29 µM)	4 (≈ 2.58 µM)	16 (≈ 10.3 µM)	-- (not active at 128 mcg/ml)	128 µg/mL (≈ 82.7 µM)	-- (not active at 128 mcg/ml)	-- (not active at 128 mcg/ml)	-- (not active at 128 mcg/ml)	-- (not active at 128 mcg/ml)	-- (not active at 128 mcg/ml)	-- (not active at 128 mcg/ml)	ED50 (Streptococcus pneumoniae): 3.5 mg/kg/2
C=CCCCCCCCCC(=O)NC1(C)CC(OC2C(Oc3c4cc5cc3Oc3ccc(cc3Cl)C(O)C3NC(=O)C(NC(=O)C5NC(=O)C(CC(N)=O)NC(=O)C(NC(=O)C(CC(C)C)NC)C(O)c5ccc(c(Cl)c5)O4)c4ccc(O)c(c4)-c4c(O)cc(O)cc4C(C(=O)O)NC3=O)OC(CO)C(O)C2O)OC(C)C1O (stereo not drawn) [Compound 9, N^van --(1-oxo-10-n-decenyl)vancomycin]	3.7 mg/kg/2	1.9 mg/kg/2	0.5 (≈ 0.309 µM)	0.5 (≈ 0.309 µM)	0.5 (≈ 0.309 µM)	0.5 (≈ 0.309 µM)	2 (≈ 1.24 µM)	0.5 (≈ 0.309 µM)	0.25 (≈ 0.155 µM)	0.25 (≈ 0.155 µM)	0.25 (≈ 0.155 µM)	1 (≈ 0.619 µM)	-- (not active at 128 mcg/ml)	128 µg/mL (≈ 79.2 µM)	-- (not active at 128 mcg/ml)	-- (not active at 128 mcg/ml)	-- (not active at 128 mcg/ml)	-- (not active at 128 mcg/ml)	-- (not active at 128 mcg/ml)	-- (not active at 128 mcg/ml)	ED50 (Streptococcus pneumoniae): 1.8 mg/kg/2
CN[C@H](CC(C)C)C(=O)N[C@H]1C(=O)N[C@@H](CC(N)=O)C(=O)N[C@H]2C(=O)N[C@H]3C(=O)N[C@H](C(=O)N[C@H](C(=O)O)c4cc(O)cc(O)c4-c4cc3ccc4O)[C@H](O)c3ccc(c(Cl)c3)Oc3cc2cc(c3O[C@@H]2O[C@H](CO)[C@@H](O)[C@H](O)[C@H]2O[C@H]2C[C@](C)(N)[C@H](O)[C@H](C)O2)Oc2ccc(cc2Cl)[C@H]1O [vancomycin, reference compound]	1.8-3.7 mg/kg/2	0.99-1.1 mg/kg/2																			ED50 (Streptococcus pneumoniae): 0.90-0.93 mg/kg/2
CCC(CC)C(=O)NC1(C)CC(OC2C(Oc3c4cc5cc3Oc3ccc(cc3Cl)C(O)C3NC(=O)C(NC(=O)C5NC(=O)C(CC(N)=O)NC(=O)C(NC(=O)C(CC(C)C)NC)C(O)c5ccc(c(Cl)c5)O4)c4ccc(O)c(c4)-c4c(O)cc(O)cc4C(C(=O)O)NC3=O)OC(CO)C(O)C2O)OC(C)C1O (stereo not drawn) [Compound 22, N^van --(2-ethyl-1-oxo-n-butyl)vancomycin]			2 (≈ 1.29 µM)	2 (≈ 1.29 µM)	2 (≈ 1.29 µM)	2 (≈ 1.29 µM)	8 (≈ 5.17 µM)	2 (≈ 1.29 µM)	2 (≈ 1.29 µM)	2 (≈ 1.29 µM)	2 (≈ 1.29 µM)	8 (≈ 5.17 µM)	128 µg/mL (≈ 82.7 µM)	128 µg/mL (≈ 82.7 µM)	-- (not active at 128 mcg/ml)	-- (not active at 128 mcg/ml)	-- (not active at 128 mcg/ml)	-- (not active at 128 mcg/ml)	-- (not active at 128 mcg/ml)	-- (not active at 128 mcg/ml)	
CNC(CC(C)C)C(=O)NC1C(=O)NC(CC(N)=O)C(=O)NC2C(=O)NC3C(=O)NC(C(=O)NC(C(=O)O)c4cc(O)cc(O)c4-c4cc3ccc4O)C(O)c3ccc(c(Cl)c3)Oc3cc2cc(c3OC2OC(CO)C(O)C(O)C2OC2CC(C)(NC(=O)C(N)C(C)C)C(O)C(C)O2)Oc2ccc(cc2Cl)C1O (stereo not drawn) [Compound 33, N^van --(2-amino-1-oxo-isopentyl)vancomycin]			8 (≈ 5.17 µM)	8 (≈ 5.17 µM)	32 (≈ 20.7 µM)	8 (≈ 5.17 µM)	32 (≈ 20.7 µM)	32 (≈ 20.7 µM)	8 (≈ 5.17 µM)	8 (≈ 5.17 µM)	8 (≈ 5.17 µM)	32 (≈ 20.7 µM)	-- (not active at 128 mcg/ml)	-- (not active at 128 mcg/ml)	-- (not active at 128 mcg/ml)	-- (not active at 128 mcg/ml)	-- (not active at 128 mcg/ml)	-- (not active at 128 mcg/ml)	-- (not active at 128 mcg/ml)	-- (not active at 128 mcg/ml)	
CNC(CC(C)C)C(=O)NC1C(=O)NC(CC(N)=O)C(=O)NC2C(=O)NC3C(=O)NC(C(=O)NC(C(=O)O)c4cc(O)cc(O)c4-c4cc3ccc4O)C(O)c3ccc(c(Cl)c3)Oc3cc2cc(c3OC2OC(CO)C(O)C(O)C2OC2CC(C)(NC(=O)CCCCCBr)C(O)C(C)O2)Oc2ccc(cc2Cl)C1O (stereo not drawn) [Compound 35, N^van --(6-bromo-n-hexyl)vancomycin]			2 (≈ 1.23 µM)	2 (≈ 1.23 µM)	4 (≈ 2.46 µM)	2 (≈ 1.23 µM)	8 (≈ 4.92 µM)	4 (≈ 2.46 µM)	2 (≈ 1.23 µM)	1 (≈ 0.615 µM)	2 (≈ 1.23 µM)	8 (≈ 4.92 µM)	-- (not active at 128 mcg/ml)	-- (not active at 128 mcg/ml)	-- (not active at 128 mcg/ml)	-- (not active at 128 mcg/ml)	-- (not active at 128 mcg/ml)	-- (not active at 128 mcg/ml)	-- (not active at 128 mcg/ml)	-- (not active at 128 mcg/ml)	
CNC(CC(C)C)C(=O)NC1C(=O)NC(CC(N)=O)C(=O)NC2C(=O)NC3C(=O)NC(C(=O)NC(C(=O)O)c4cc(O)cc(O)c4-c4cc3ccc4O)C(O)c3ccc(c(Cl)c3)Oc3cc2cc(c3OC2OC(CO)C(O)C(O)C2OC2CC(C)(NC(=O)CCC(C)=O)C(O)C(C)O2)Oc2ccc(cc2Cl)C1O (stereo not drawn) [Compound 36, N^van --(3-acetyl-1-oxo-n-propyl)vancomycin]			2 (≈ 1.29 µM)	2 (≈ 1.29 µM)	2 (≈ 1.29 µM)	4 (≈ 2.59 µM)	16 (≈ 10.3 µM)	4 (≈ 2.59 µM)	1 (≈ 0.646 µM)	1 (≈ 0.646 µM)	4 (≈ 2.59 µM)	8 (≈ 5.17 µM)	-- (not active at 128 mcg/ml)	-- (not active at 128 mcg/ml)	-- (not active at 128 mcg/ml)	-- (not active at 128 mcg/ml)	-- (not active at 128 mcg/ml)	-- (not active at 128 mcg/ml)	-- (not active at 128 mcg/ml)	-- (not active at 128 mcg/ml)	

Source: US4639433A, “Glycopeptide derivatives” (Eli Lilly and Company, priority 1985, dated 1987)
